Structures can show the parent of a compound that is named as a salt.
System: human adipose-derived stem cells (hADSC)
Experiment: Osteogenic differentiation and assessment of mineralisation in vitro (Alizarin Red S)
Type: cell-based
Settings: 300 nM; 24 days of cell culture; relative to vehicle control (0.2% DMSO)
Procedure: For in vitro osteogenesis, human adipose-derived stem cells (hADSC) (Invitrogen, UK; catalogue number R7788-115) were seeded into 12-well plates at a density of 5000 cells/cm^2 and were cultured in a basal media of phenol red-free Dulbecco's Modified Eagles Medium (DMEM; Sigma-Aldrich, UK; catalogue number D1145) supplemented with 5% fetal bovine serum (FBS, Gibco, UK; catalogue number 10270) and 2 mM GlutaMax® (Gibco; catalogue number 35050). […] The formation of mineralized bone nodules was assessed during the time-course using Alizarin Red S staining. […] The amount of mineralisation was quantified through the extraction of the Alizarin Red S stain from bone nodules using a cetylpyridinium chloride extraction method, previously described (Gregory et al., Analytical Biochemistry, 2004, 329: 77-84; Hwang et al., Stem Cells and Development 17: 963-970, 2008). […] Following incubation, 200 μl aliquots were transferred to 96-well format and the absorbance at 550 nm was determined using a microplate spectrophotometer (SpectraMax Plus, Molecular Devices, USA). Data were expressed as mean absorbance at 550 nm±Standard error of mean (SEM). […] Data are shown as mean absorbance at 550 nm and analysed using one-way ANOVA followed by Tukey's multiple comparison post hoc test: n=9; ***, P<0.001. […]

COCCCNCCCc1ccc(-c2cnc(N)c(C(=O)Nc3cccnc3)n2)cc1 [Example 1, 3-Amino-6-(4-{3-[(3-methoxypropyl)amino]propyl}phenyl)-N-pyridin-3-ylpyrazine-2-carboxamide tri-hydrochloride]
Alizarin red S staining of mineralised bone nodules: significantly induced progenitor cell commitment and osteoblast differentiation
